According to patent publication US20120328569A1, “INHIBITORS OF HEPATITIS C VIRUS NS5B POLYMERASE” (priority 2010, published 2012):

Test system: HCV genotype 1b replicon
Assay: HCV replicon assay, cell ELISA with antibody to replicon-encoded NS3/4A (genotype 1b replicon)
Assay type: cell-based, hepatitis C virus
Settings: Hepatitis C virus, 96 h, read-out: Replicon 1b IC50 (nM), HCV genotype 1b replicon cells, 96 hours incubation, NS3/4A ELISA readout
Description: The HCV NS5B inhibitory activity of the present compounds may be tested using assays known in the art. The HCV NS5B polymerase inhibitors described herein have activities in a genotype 1b replicon assay as described in the Examples. The assay is performed by incubating a replicon harboring cell-line in the presence of inhibitor for a set period of time and measuring the effect of the inhibitor on HCV replicon replication either directly by quantifying replicon RNA level, or indirectly by measuring enzymatic activity of a co-encoded reporter enzyme such as luciferase or β-lactamase. By performing a series of such measurements at different inhibitor concentrations, the effective inhibitory concentration of the inhibitor (EC50 or EC90) is determined. See Jan M. Vrolijk et al., A replicons-based bioassay for the measurement of interferons in patients with chronic hepatitis C, 110 J. VIROLOGICAL METHODS 201 (2003). Such assays may also be run in an automated format for high through-put screening. See Paul Zuck et al., A cell-based β-lactamase reporter gene assay for the identification of inhibitors of hepatitis C virus replication, 334 ANALYTICAL BIOCHEMISTRY 344 (2004).
Measurement of inhibition by compounds was performed using the HCV replicon system. Several different replicons encoding different HCV genotypes or mutations were used. In addition, potency measurements were made using different formats of the replicon assay, including different ways of measurements and different plating formats. See Jan M. Vrolijk et al., A replicons-based bioassay for the measurement of interferons in patients with chronic hepatitis C, 110 J. VIROLOGICAL METHODS 201 (2003); Steven S. Carroll et al., Inhibition of Hepatitis C Virus RNA Replication by 2′-Modified Nucleoside Analogs, 278(14) J. BIOLOGICAL CHEMISTRY 11979 (2003). However, the underlying principles are common to all of these determinations, and are outlined below.
Stable neomycin phosphotransferase encoding replicons-harboring cell lines were used, so all cell lines were maintained under G418 selection prior to the assay. Potency was determined using a cell ELISA assay with an antibody to the replicons encoded NS3/4a protease. See Caterina Trozzi et al., In Vitro Selection and Characterization of Hepatitis C Virus Serine Protease Variants Resistant to an Active-Site Peptide Inhibitor, 77(6) J. Virol. 3669 (2003). To initiate an assay, replicon cells were plated in the presence of a dilution series of test compound in the absence of G418. Typically, the assays were performed in a 96-well plate formate for manual operation, or a 384-well plate format for automated assay. Replicon cells and compound were incubated for 96 hours. At the end of the assay, cells were washed free of media and compound, and the cells were then lysed. RNA was quantified indirectly through detection of replicon-encoded NS3/4A protein levels, through an ELISA-based assay with an antibody specific for NS3/4A. IC50 determinations were calculated as a percentage of a DMSO control by fitting the data to a four-parameter fit function and the data obtained is provided in the table below.

Row | SMILES | IC50 [nM]
1 | CNC(=O)c1c(-c2ccc(F)cc2)oc2cc(N(C)S(C)(=O)=O)c(-c3cccc(-c4cc5cc(F)ccc5[nH]4)c3)cc12 [Compound 367] | 3.9
2 | CNC(=O)c1c(-c2ccc(F)cc2)oc2cc(N(C)S(C)(=O)=O)c(-c3cccc(-c4cc5ncccc5[nH]4)c3)cc12 [Compound 368] | 1.6
3 | CNC(=O)c1c(-c2ccc(F)cc2)oc2cc(N(C)S(C)(=O)=O)c(-c3cccc(-c4cc5cccnc5[nH]4)c3)cc12 [Compound 369] | 2.7
4 | CNC(=O)c1c(-c2ccc(F)cc2)oc2cc(N(C)S(C)(=O)=O)c(-c3cccc(-c4[nH]c5ccccc5c4C)c3)cc12 [Compound 370] | 8.8
5 | CNC(=O)c1c(-c2ccc(F)cc2)oc2cc(N(C)S(C)(=O)=O)c(-c3cccc(-c4cc5cccc(Cl)c5[nH]4)c3)cc12 [Compound 371] | 5.8
6 | CNC(=O)c1c(-c2ccc(F)cc2)oc2cc(N(C)S(C)(=O)=O)c(-c3cc(F)cc(-c4cc5ccccc5[nH]4)c3)cc12 [Compound 372] | 13
7 | CNC(=O)c1c(-c2ccc(F)cc2)oc2cc(N(C)S(C)(=O)=O)c(-c3ccc(OC)c(-c4cc5ccccc5[nH]4)c3)cc12 [Compound 373] | 3.9
8 | CNC(=O)c1c(-c2ccc(F)cc2)oc2cc(N(C)S(C)(=O)=O)c(-c3ccc(OC)c(-c4cc5cccc(F)c5[nH]4)c3)cc12 [Compound 374] | 52.4
9 | CNC(=O)c1c(-c2ccc(F)cc2)oc2cc(N(C)S(C)(=O)=O)c(-c3cc(OC)cc(-c4cc5ccccc5[nH]4)c3)cc12 [Compound 375] | 2.7
10 | CNC(=O)c1c(-c2cccc(-c3cc4c(C(=O)NC)c(-c5ccc(F)cc5)oc4cc3N(C)S(C)(=O)=O)c2)[nH]c2ccccc12 [Compound 377] | 1.2
11 | CNC(=O)c1c(-c2ccc(F)cc2)oc2cc(N(C)S(C)(=O)=O)c(-c3cc(OC)cc(-c4cc5cccnc5[nH]4)c3)cc12 [Compound 378] | 1.8
12 | CNC(=O)c1c(-c2ccc(F)cc2)oc2cc(N(C)S(C)(=O)=O)c(-c3ccc(F)c(-c4cc5cccnc5[nH]4)c3)cc12 [Compound 380] | 1.2
13 | CNC(=O)c1c(-c2ccc(F)cc2)oc2cc(N(CCO)S(C)(=O)=O)c(-c3cc(F)cc(-c4nc5ncccc5o4)c3)cc12 [Compound 386] | 1.3
14 | CNC(=O)c1c(-c2ccc(F)cc2)oc2cc(N(CCO)S(C)(=O)=O)c(-c3ccc(OC)c(-c4nc5ncccc5o4)c3)cc12 [Compound 387] | 2.3
15 | CNC(=O)c1c(-c2ccc(F)cc2)oc2cc(N(CCCCO)S(C)(=O)=O)c(-c3cccc(-c4nc5ncccc5o4)c3)cc12 [Compound 391] | 2.4
16 | CNC(=O)c1c(-c2ccc(F)cc2)oc2cc(N(CCCC#N)S(C)(=O)=O)c(-c3cccc(-c4nc5ncccc5o4)c3)cc12 [Compound 393] | 1.2
17 | CNC(=O)c1c(-c2ccc(F)cc2)oc2cc(N(CCCCC#N)S(C)(=O)=O)c(-c3cccc(-c4nc5ncccc5o4)c3)cc12 [Compound 394] | 1.4
18 | CNC(=O)c1c(-c2ccc(F)cc2)oc2cc(N(CCCNC(=O)OC(C)(C)C)S(C)(=O)=O)c(-c3cccc(-c4nc5ncccc5o4)c3)cc12 [Compound 395] | 8.2

Row | SMILES | IC50 [nM]
19 | CNC(=O)c1c(-c2ccc(F)cc2)oc2cc(N(CCCN)S(C)(=O)=O)c(-c3cccc(-c4nc5ncccc5o4)c3)cc12 [Compound 396] | 18.2
20 | CNC(=O)c1c(-c2ccc(F)cc2)oc2cc(N(CCN(C)C)S(C)(=O)=O)c(-c3cccc(-c4nc5ncccc5o4)c3)cc12 [Compound 398] | 2.4
21 | CNC(=O)c1c(-c2ccc(F)cc2)oc2cc(N(CCCN(C)C)S(C)(=O)=O)c(-c3cccc(-c4nc5ncccc5o4)c3)cc12 [Compound 399] | 2.8
22 | CCS(=O)(=O)N(C)c1cc2oc(-c3ccc(F)cc3)c(C(=O)NC)c2cc1-c1cccc(-c2nc3ncccc3o2)c1 [Compound 401] | 1.8
23 | CNC(=O)c1c(-c2ccc(F)cc2)oc2cc(N(C)S(C)(=O)=O)c(-c3ccccc3)cc12 [Example 1, 2-(4-fluorophenyl)-N-methyl-6-[methyl(methylsulfonyl)amino]-5-phenyl-1-benzofuran-3-carboxamide] | 120
24 | CNC(=O)c1c(-c2ccc(F)cc2)oc2cc(N(CCO)S(C)(=O)=O)c(-c3ccccc3)cc12 [Example 2, 2-(4-fluorophenyl)-6-[(2-hydroxyethyl) (methylsulfonyl)amino]-N-methyl-5-phenyl-1-benzofuran-3-carboxamide] | 114
25 | CNC(=O)c1c(-c2ccc(F)cc2)oc2cc(N(CCN(C)c3ccccc3)S(C)(=O)=O)c(-c3ccccc3)cc12 [Example 3, 2-(4-fluorophenyl)-N-methyl-6-[{2-[methyl(phenyl)amino]ethyl} (methylsulfonyl)amino]-5-phenyl-1-benzofuran-3-carboxamide] | 80
26 | CNC(=O)c1c(-c2ccc(F)cc2)oc2cc(N(C(C)c3ccccc3)S(C)(=O)=O)c(-c3ccccc3)cc12 (stereo not drawn) [Example 4, 2-(4-fluorophenyl)-N-methyl-6-[(methylsulfonyl) (1-phenylethyl)amino]-5-phenyl-1-benzofuran-3-carboxamide] | 703
27 | CCN(c1cc2oc(-c3ccc(F)cc3)c(C(=O)NC)c2cc1-c1ccccc1)S(C)(=O)=O [Example 5, 6-[ethyl (methylsulfonyl)amino]-2-(4-fluorophenyl)-N-methyl-5-phenyl-1-benzofuran-3-carboxamide] | 47
28 | CNC(=O)c1c(-c2ccc(F)cc2)oc2cc(N(CCCc3ccccc3)S(C)(=O)=O)c(-c3ccccc3)cc12 [Example 6, 2-(4-fluorophenyl)-N-methyl-6-[(methylsulfonyl) (3-phenylpropyl)amino]-5-phenyl-1-benzofuran-3-carboxamide] | 118
29 | CONC(=O)c1c(-c2ccc(F)cc2)oc2cc(N(CCN(C)c3ccccc3)S(C)(=O)=O)c(-c3ccccc3)cc12 [Example 8, 2-(4-fluorophenyl)-N-methoxy-6-[{2-[methyl(phenyl)amino]ethyl} (methylsulfonyl)amino]-5-phenyl-1-benzofuran-3-carboxamide] | 276
30 | CCN(c1cc2oc(-c3ccc(F)cc3)c(C(=O)NOC)c2cc1-c1ccccc1)S(C)(=O)=O [Example 9, 6-[ethyl (methylsulfonyl)amino]-2-(4-fluorophenyl)-N-methoxy-5-phenyl-1-benzofuran-3-carboxamide] | 99
31 | CONC(=O)c1c(-c2ccc(F)cc2)oc2cc(N(CCCc3ccccc3)S(C)(=O)=O)c(-c3ccccc3)cc12 [Example 10, 2-(4-fluorophenyl)-N-methoxy-6-[(methylsulfonyl) (3-phenylpropyl)amino]-5-phenyl-1-benzofuran-3-carboxamide] | 221
32 | CNC(=O)c1c(-c2ccc(F)cc2)oc2cc(N(CC3CCCCC3)S(C)(=O)=O)c(-c3ccccc3)cc12 [Example 13, 6-[(cyclohexylmethyl)(methylsulfonyl)amino]-2-(4-fluorophenyl)-N-methyl-5-phenyl-1-benzofuran-3-carboxamide] | 84
33 | CNC(=O)c1c(-c2ccc(F)cc2)oc2cc(N(CC(C)C)S(C)(=O)=O)c(-c3ccccc3)cc12 [Example 16, 2-(4-fluorophenyl)-N-methyl-6-[(2-methylpropyl) (methylsulfonyl)amino]-5-phenyl-1-benzofuran-3-carboxamide] | 68
34 | CCCCN(c1cc2oc(-c3ccc(F)cc3)c(C(=O)NC)c2cc1-c1ccccc1)S(C)(=O)=O [Example 17, 6-[butyl (methylsulfonyl)amino]-2-(4-fluorophenyl)-N-methyl-5-phenyl-1-benzofuran-3-carboxamide] | 48
35 | CNC(=O)c1c(-c2ccc(F)cc2)oc2cc(N(CCC(C)C)S(C)(=O)=O)c(-c3ccccc3)cc12 [Example 18, 2-(4-fluorophenyl)-N-methyl-6-[(3-methylbutyl) (methylsulfonyl)amino]-5-phenyl-1-benzofuran-3-carboxamide] | 41
36 | CCC(C)CN(c1cc2oc(-c3ccc(F)cc3)c(C(=O)NC)c2cc1-c1ccccc1)S(C)(=O)=O (stereo not drawn) [Example 19, 2-(4-fluorophenyl)-N-methyl-6-[(2-methylbutyl) (methylsulfonyl)amino]-5-phenyl-1-benzofuran-3-carboxamide] | 227
